# Experiments:
# IRAK4 = biological target: T1, IRAK4 (Homo sapiens, UniProt Q9NWZ3); test: Reaction Biology NanoBRET target engagement assay, IRAK4; type: cell-based; details: transfected HEK-293 cells
# T1 sequence (Q9NWZ3 1-460): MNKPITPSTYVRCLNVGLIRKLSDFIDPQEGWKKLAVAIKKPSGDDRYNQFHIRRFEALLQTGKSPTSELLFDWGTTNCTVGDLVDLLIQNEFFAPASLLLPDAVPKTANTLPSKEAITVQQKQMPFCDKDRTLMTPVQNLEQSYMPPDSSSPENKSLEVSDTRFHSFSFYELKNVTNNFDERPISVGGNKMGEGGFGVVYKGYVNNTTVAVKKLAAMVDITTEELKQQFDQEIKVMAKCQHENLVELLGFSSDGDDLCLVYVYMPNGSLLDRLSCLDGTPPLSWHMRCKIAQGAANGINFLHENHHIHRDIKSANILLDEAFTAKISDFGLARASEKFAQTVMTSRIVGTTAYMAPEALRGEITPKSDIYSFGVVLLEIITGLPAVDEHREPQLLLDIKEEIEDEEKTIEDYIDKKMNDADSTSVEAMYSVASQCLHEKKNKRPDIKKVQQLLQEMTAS
# From the text: (§1) The NanoBRET assay measures kinase engagement in real time in the context of the intact cell. Unlike the previously described biochemical kinase assay methodologies in Examples 26-27, the NanoBRET assay measures the binding and activity characteristics under equilibrium conditions using full-length kinases in the presence of cellular concentrations of ATP in live, uncompromised cells. As such, the assay provides a more relevant assessment of kinase potency and selectivity that would be expected to be observed in the native cellular environment, where potency is often considerably lower than that observed in the isolated biochemical assays (Vasta, J. D. et al., (2018) Cell Chem. Biol. 25, 206-214). The assay uses a Kinase-NanoLuc® fusion vector expressing a kinase protein to which a luciferase tag has been added, a cell-permeant fluorescent NanoBRET™ tracer, a NanoLuc® substrate, and an extracellular NanoLuc® inhibitor. Upon expression of the luciferase-tagged kinase, cells will produce a strong BRET signal only in the presence of the NanoBRET™ tracer. The extracellular NanoLuc® inhibitor ensures that the BRET signal observed emanates only from live cells. Because the BRET signal has tight distance constraints, addition of the test compound will decrease the BRET signal if the compound competes with the NanoBRET™ tracer for binding to the kinase domain. Under the appropriate tracer conditions established by the manufacturer, quantitative intracellular affinity and relative potency can then be determined using Mass Action model equations.
# (§2) HEK-293 cells were purchased from ATCC. FuGENEHD Transfection Reagent, Kinase-NanoLucfusion plasmids, Transfection Carrier DNA, NanoBRETTracers and dilution buffer, NanoBRETNano-Glo Substrate, Extracellular NanoLucInhibitor were obtained from Promega.
# (§3) Assays were conducted following Promega assay protocol with some modifications. HEK-293 Cells were transiently transfected with Kinase-NanoLucFusion Vector DNA by FuGENEHD Transfection Reagent. Testing compounds were delivered into 384 well assay plate by Echo 550 (LabcyteInc, Sunnyvale, CA). Transfected cells were harvested and mixed with NanoBRETTracer Reagent and dispensed into 384 well plates and incubated at 37° C. in 5% CO2 cell culture incubator for 1 hour. The NanoBRETNano-Glo Substrate plus Extracellular NanoLucInhibitor Solution were added into the wells of the assay plate and incubated for 2-3 minutes at room temperature. The donor emission wavelength (460 nm) and acceptor emission wavelength (600 nm) were measured in the EnVisionplate reader. The BRET Ratios were calculated. BRET Ratio=[(Acceptor sample÷Donor sample)−(Acceptor no-tracer control÷Donor no-tracer control)]. The IC50 values of compounds were calculated with Prism GraphPad program.
# (§4) • 1). Cultivate HEK-293 cells (70-80% confluence) appropriately prior to assay. Trypsinize and collect HEK-293 cells. • 2). Prepare lipid: DNA complexes as follows: • a. Prepare a 10 μg/ml solution of DNA in Opti-MEM without serum that consists of the following ratios of carrier DNA and DNA encoding NanoLuc® fusion. 9.0 μg/mL of Transfection Carrier DNA, 1.0 μg/mL of NanoLuc fusion vector DNA and 1 mL of Opti-MEM without phenol red. Mix thoroughly. • b. Add 30 μl of FuGENE HD Transfection Reagent into each milliliter of DNA mixture to form lipid:DNA complex. • c. Mix by inversion 10 times. • d. Incubate at ambient temperature for 20 minutes to allow complexes to form. • 3). In a sterile, conical tube, mix 1 part of lipid:DNA complex with 20 parts of HEK-293 cells in suspension. Mix gently by inversion 5 times. • 4). Dispense cells+lipid:DNA complex into a sterile tissue culture dish and incubate for 22-24 hours. 2. Addition of Test Compounds (Dry Plate Shooting)
# (§5) Each test compound is delivered from the compound source plate to the wells of 384-well white NBS plate by Echo 550.
# • 1). […]
# FLT3 = biological target: T2, FLT3 (Homo sapiens, UniProt P36888); test: Reaction Biology NanoBRET target engagement assay, FLT3; type: cell-based; details: transfected HEK-293 cells
# T2 construct: using full-length kinases in the presence of cellular concentrations of ATP in live, uncompromised cells; assay by Reaction Biology; host or cells: HEK-293 (ATCC), transient transfection
# T2 sequence (P36888 27-993): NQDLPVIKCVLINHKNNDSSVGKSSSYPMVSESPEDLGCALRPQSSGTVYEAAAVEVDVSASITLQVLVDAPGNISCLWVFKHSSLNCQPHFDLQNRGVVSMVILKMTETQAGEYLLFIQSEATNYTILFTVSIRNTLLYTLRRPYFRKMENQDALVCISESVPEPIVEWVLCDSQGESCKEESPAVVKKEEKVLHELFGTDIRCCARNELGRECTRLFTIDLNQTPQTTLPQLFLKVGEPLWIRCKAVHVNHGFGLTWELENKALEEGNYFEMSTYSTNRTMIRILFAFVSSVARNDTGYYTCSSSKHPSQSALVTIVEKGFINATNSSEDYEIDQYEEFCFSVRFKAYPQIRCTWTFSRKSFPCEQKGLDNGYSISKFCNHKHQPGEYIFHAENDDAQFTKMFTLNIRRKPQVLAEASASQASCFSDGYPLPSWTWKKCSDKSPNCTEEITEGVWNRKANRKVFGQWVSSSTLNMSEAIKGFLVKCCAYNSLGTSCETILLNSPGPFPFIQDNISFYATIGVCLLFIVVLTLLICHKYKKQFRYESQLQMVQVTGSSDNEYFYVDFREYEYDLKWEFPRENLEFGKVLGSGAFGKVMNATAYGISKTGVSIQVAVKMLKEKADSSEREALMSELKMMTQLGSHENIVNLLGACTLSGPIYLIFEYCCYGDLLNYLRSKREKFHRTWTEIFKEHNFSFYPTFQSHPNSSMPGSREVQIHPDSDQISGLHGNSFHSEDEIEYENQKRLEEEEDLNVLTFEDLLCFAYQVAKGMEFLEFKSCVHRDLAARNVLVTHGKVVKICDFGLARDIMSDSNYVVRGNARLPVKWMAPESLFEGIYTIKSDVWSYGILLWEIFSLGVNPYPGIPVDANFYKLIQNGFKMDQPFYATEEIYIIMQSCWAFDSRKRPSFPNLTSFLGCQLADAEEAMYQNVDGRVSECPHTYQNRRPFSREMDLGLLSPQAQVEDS
# From the text: as §1, §2, §3, §4, §5
# • 1). […]
Compound,IC50 (IRAK4) [µM],IC50 (FLT3) [µM]
"COc1cc2ncc(-c3cccc(N[C@H]4CNC[C@@H]4F)n3)n2nc1C(C)(O)C(F)(F)F (single isomer, unassigned; fast-eluting) [Compound 133]",0.098,0.226
"COc1cc2ncc(-c3nc(N[C@@H]4CCCNC4)c(F)cc3F)n2nc1C1CC1 [Compound 106, (R)-6-(6-cyclopropyl-7-methoxyimidazo[1,2-b]pyridazin-3-yl)-3,5-difluoro-N-(piperidin-3-yl)pyridin-2-amine]",< 0.0005,< 0.0005
"COc1cc2ncc(-c3nc(N[C@H]4CNC[C@@H]4F)c(F)cc3F)n2nc1C1CC1 [Compound 107, 6-(6-cyclopropyl-7-methoxyimidazo[1,2-b]pyridazin-3-yl)-3,5-difluoro-N-((3S,4S)-4-fluoropyrrolidin-3-yl)pyridin-2-amine]",< 0.0005,4.89
"COc1cc2ncc(-c3nc(N[C@@H]4CCCNC4)c(F)cc3F)n2nc1C(C)(C)O [Compound 127, (R)-2-(3-(3,5-difluoro-6-(piperidin-3-ylamino)pyridin-2-yl)-7-methoxyimidazo[1,2-b]pyridazin-6-yl)propan-2-ol]",0.03,0.196
"c1cc(N[C@@H]2CCCNC2)nc(-c2cnc3ccc(-c4cnn5ccccc45)nn23)c1 [Compound 19, (R)-N-(piperidin-3-yl)-6-(6-(pyrazolo[1,5-a]pyridin-3-yl)imidazo[1,2-b]pyridazin-3-yl)pyridin-2-amine]",0.511,0.142
"COc1cc2ncc(-c3cccc(N[C@H]4CNCC[C@@H]4F)n3)n2nc1C1CC1 [Compound 102, 6-(6-cyclopropyl-7-methoxyimidazo[1,2-b]pyridazin-3-yl)-N-((3S,4S)-4-fluoropiperidin-3-yl)pyridin-2-amine]",0.002,0.004
"F[C@H]1CNC[C@@H]1Nc1cccc(-c2cnc3ccc(-c4cnn5ccccc45)nn23)n1 [Compound 9, N-((3S,4S)-4-fluoropyrrolidin-3-yl)-6-(6-(pyrazolo[1,5-a]pyridin-3-yl)imidazo[1,2-b]pyridazin-3-yl)pyridin-2-amine]",0.054,0.367
"COc1cc2ncc(-c3cccc(N[C@H]4CNC[C@@H]4F)n3)n2nc1C1CC1 [Compound 96, 6-(6-cyclopropyl-7-methoxyimidazo[1,2-b]pyridazin-3-yl)-N-((3S,4S)-4-fluoropyrrolidin-3-yl)pyridin-2-amine]",0.002,0.018
"COc1cc2ncc(-c3cccc(N[C@H]4CNC[C@@H]4C(F)(F)F)n3)n2nc1C1CC1 [Compound 99, 6-(6-cyclopropyl-7-methoxyimidazo[1,2-b]pyridazin-3-yl)-N-((3R,4S)-4-(trifluoromethyl)pyrrolidin-3-yl)pyridin-2-amine]",0.003,0.003
"COc1cc2ncc(-c3nc(N[C@H]4CNC[C@@H]4F)c(F)cc3F)n2nc1C(C)(C)O [Compound 126, 2-(3-(3,5-difluoro-6-(((3S,4S)-4-fluoropyrrolidin-3-yl)amino)pyridin-2-yl)-7-methoxyimidazo[1,2-b]pyridazin-6-yl)propan-2-ol]",0.007,1.16
"COc1cc2ncc(-c3nc(N[C@H]4CNCC[C@@H]4F)c(F)cc3F)n2nc1C1CC1 [Compound 108, 6-(6-cyclopropyl-7-methoxyimidazo[1,2-b]pyridazin-3-yl)-3,5-difluoro-N-((3S,4S)-4-fluoropiperidin-3-yl)pyridin-2-amine]",< 0.0005,< 0.0005
"COc1cc2ncc(-c3nc(N[C@H]4CNCC[C@@H]4F)c(F)cc3F)n2nc1C(C)(C)O [Compound 128, 2-(3-(3,5-difluoro-6-(((3S,4S)-4-fluoropiperidin-3-yl)amino)pyridin-2-yl)-7-methoxyimidazo[1,2-b]pyridazin-6-yl)propan-2-ol]",0.015,0.102

# From patent US12534469B2 (CHILDREN'S HOSPITAL MEDICAL CENTER, priority 2020, dated 2026)
